According to publication PMC9271048, “Probing strigolactone perception mechanisms with rationally designed small-molecule agonists stimulating germination of root parasitic weeds” (Nature Communications, 2022):

Test system: P. aegyptiaca seeds
Assay: P. aegyptiaca seed germination assay
Format: in vivo, Phelipanche aegyptiaca
Details: Phelipanche aegyptiaca; source data of Fig. 2c and Supplementary Fig. 8b; average of 3; read-out: P. aegyptiaca germination EC50 values, source data average (converted)
In short: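 Germination scored at ×20 magnification after one week dark incubation at 25 °C with compound (acetone stock diluted 999/1 in water). Seeds were NaClO-sterilized and conditioned 4 days at 25 °C in the dark beforehand; 1‰ acetone negative, rac-GR24 positive control; triplicate biological repeats.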
`CC1=C[C@@H](OC(=O)N2CCN(C(=O)COc3ccc(Br)cc3C)CC2)OC1=O` [(R)-4a] gave an EC50 of 1.27 µM.

Test system: not listed separately
Assay: Chemical reactivity analysis (HPLC, methanol/PBS pH 7.4)
Format: physicochemical
Details: methanol/phosphate-buffered saline mixture; Supplementary Fig. 10 source data; methanol/PBS pH 7.4, 26 °C; read-out: half-life time (t1/2), source data average (converted)
Description: Chemical reactivity is an important factor in the bioactivity of natural and synthetic SLs.
One hundred twenty microliters of sample solution was added to a solution of PBS (10 mM, pH 7.4, 810 μL) and methanol (270 μL). The solution was stirred vigorously for 30 s and then transferred to HPLC vial, and the vial was stored at 26 ± 1 °C. […] The analytical column was Extend-C18 (4.6 mm × 150 mm × 5 μm). The mobile phases were CH3CN and H2O (containing 0.1% HCO2H), VCH3CN:VH2O = 50:50, with a flow rate of 1 mL/min, and an injection volume of 5 μL. The percentage of remaining compounds in the solution was calculated from the peak area. The half-life times (t1/2) of samples were calculated.
`CC1=C[C@@H](OC(=O)N2CCN(C(=O)COc3ccc(Br)cc3C)CC2)OC1=O` [(R)-4a] showed a half-life at 0.5 mM of 6.99 h.

Target: ShHTL7 (Striga hermonthica, UniProt A0A0M3PNA2)
Sequence (A0A0M3PNA2 entry or part of it): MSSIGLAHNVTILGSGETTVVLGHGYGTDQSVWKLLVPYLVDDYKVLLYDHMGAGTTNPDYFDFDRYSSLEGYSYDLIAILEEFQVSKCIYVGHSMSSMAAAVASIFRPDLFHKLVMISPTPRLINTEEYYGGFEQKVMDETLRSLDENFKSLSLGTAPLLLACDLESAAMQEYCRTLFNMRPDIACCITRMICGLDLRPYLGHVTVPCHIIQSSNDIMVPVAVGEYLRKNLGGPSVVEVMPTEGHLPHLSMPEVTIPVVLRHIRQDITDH
Assay: ShHTL7-hydrolysis reaction analysis (HPLC)
Format: biochemical
Details: 10 μM compound, 30 °C, 30 min
In short: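 Compounds at 10 μM were incubated with 10 μg recombinant ShHTL7 or its mutants in PBS (pH 7.3) at 30 °C for 30 min, then quenched with methanol. The remaining compound was quantified by HPLC, and hydrolysis was expressed relative to a protein-free buffer control (n = 3).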
With `CC1=C[C@@H](OC(=O)N2CCN(C(=O)COc3ccc(Br)cc3C)CC2)OC1=O` [(R)-4a] the “hydrolysis by ShHTL7” value was 3.1%.

Same assay, conditions: 10 μM compound, 30 °C, 30 min; Supplementary Figs. 11, 20a, 24a
With `CC1=C[C@@H](OC(=O)N2CCN(C(=O)COc3ccc(Br)cc3C)CC2)OC1=O` [(R)-4a] the “relative percentage of hydrolysis by ShHTL7, source data average” value was 3.081%.

Test system: ShHTLs (10 HTL proteins in S. hermonthica)
Assay: YLG-based competition assay on HTL proteins of S. hermonthica
Format: biochemical, Striga hermonthica
Details: ShHTL2; YLG competition; Supplementary Fig. 27; read-out: IC50, replicate 1
Description: In P. aegyptiaca, 5 KAI2s have been proposed as the SL receptors for the regulation of seed germination. […] The high sequence similarity may explain the consistency of these compounds in inducing germination in both S. hermonthica and P. aegyptiaca.
The excitation and emission wavelengths of YLG are 480 and 520 nm, respectively. We used a fluorescence spectrophotometer (CARY Eclipse) to detect the fluorescence intensity change of YLG during the enzymatic hydrolysis assay process. All the testing compounds and YLG were dissolved in DMSO and prepared as stock solutions just before use. […] The changes of fluorescence at 520 nm of each well were recorded every 1 min for 30 min. Using the reaction mixture without adding enzyme and tested compounds as the background control. After subtracting the background hydrolysis, a linear fluorescence increase in 8 min was used for further inspection. The IC50 values were determined via fitting relative inhibition percentages with the varying concentrations of compounds in Microsoft Excel.
Supplementary Fig. 27. Binding of compounds 4a, (R)- and (S)-4a, and 4g-i to the HTL proteins in S. hermonthica and KAI2 protein homologs in P. aegyptiaca. In the competitive inhibitory activity assay, YLG (3 µM) was used as the fluorogenic substrate. Error bar indicates SD (n = 3 biologically independent experiments).
(1 picture or pasted object on this page, not shown here)
For `CC1=C[C@@H](OC(=O)N2CCN(C(=O)COc3ccc(Br)cc3C)CC2)OC1=O` [(R)-4a], the IC50 was 69.7 µM.

Same assay, conditions: ShHTL2; YLG competition; Supplementary Fig. 27; read-out: IC50, replicate 2
For `CC1=C[C@@H](OC(=O)N2CCN(C(=O)COc3ccc(Br)cc3C)CC2)OC1=O` [(R)-4a], the IC50 was 64.8 µM.

Same assay, conditions: ShHTL2; YLG competition; Supplementary Fig. 27; read-out: IC50, replicate 3
For `CC1=C[C@@H](OC(=O)N2CCN(C(=O)COc3ccc(Br)cc3C)CC2)OC1=O` [(R)-4a], the IC50 was 63.8 µM.

Same assay, conditions: ShHTL2; average of 3 replicates; Supplementary Fig. 27; read-out: IC50, average
For `CC1=C[C@@H](OC(=O)N2CCN(C(=O)COc3ccc(Br)cc3C)CC2)OC1=O` [(R)-4a], the IC50 was 66.1 µM.

Same assay, conditions: ShHTL3; YLG competition; Supplementary Fig. 27; read-out: IC50, replicate 1
`CC1=C[C@@H](OC(=O)N2CCN(C(=O)COc3ccc(Br)cc3C)CC2)OC1=O` [(R)-4a] gave an IC50 of 62.1 µM.

Same assay, conditions: ShHTL3; YLG competition; Supplementary Fig. 27; read-out: IC50, replicate 2
Work on `CC1=C[C@@H](OC(=O)N2CCN(C(=O)COc3ccc(Br)cc3C)CC2)OC1=O` [(R)-4a] yielded an IC50 of 76.7 µM.

Same assay, conditions: ShHTL3; YLG competition; Supplementary Fig. 27; read-out: IC50, replicate 3
In the case of `CC1=C[C@@H](OC(=O)N2CCN(C(=O)COc3ccc(Br)cc3C)CC2)OC1=O` [(R)-4a], the IC50 is reported as 63.2 µM.

Same assay, conditions: ShHTL3; average of 3 replicates; Supplementary Fig. 27; read-out: IC50, average
`CC1=C[C@@H](OC(=O)N2CCN(C(=O)COc3ccc(Br)cc3C)CC2)OC1=O` [(R)-4a] showed an IC50 of 67.3 µM.

Same assay, conditions: ShHTL4; YLG competition; Supplementary Fig. 27; read-out: IC50, replicate 1
`CC1=C[C@@H](OC(=O)N2CCN(C(=O)COc3ccc(Br)cc3C)CC2)OC1=O` [(R)-4a] showed an IC50 of 22.9 µM.

Same assay, conditions: ShHTL4; YLG competition; Supplementary Fig. 27; read-out: IC50, replicate 2
`CC1=C[C@@H](OC(=O)N2CCN(C(=O)COc3ccc(Br)cc3C)CC2)OC1=O` [(R)-4a] showed an IC50 of 19.8 µM.

Same assay, conditions: ShHTL4; YLG competition; Supplementary Fig. 27; read-out: IC50, replicate 3
With `CC1=C[C@@H](OC(=O)N2CCN(C(=O)COc3ccc(Br)cc3C)CC2)OC1=O` [(R)-4a] the IC50 was 20.3 µM.

Same assay, conditions: ShHTL4; average of 3 replicates; Supplementary Fig. 27; read-out: IC50, average
For `CC1=C[C@@H](OC(=O)N2CCN(C(=O)COc3ccc(Br)cc3C)CC2)OC1=O` [(R)-4a], the IC50 was 21 µM.

Same assay, conditions: ShHTL5; YLG competition; Supplementary Fig. 27; read-out: IC50, replicate 1
`CC1=C[C@@H](OC(=O)N2CCN(C(=O)COc3ccc(Br)cc3C)CC2)OC1=O` [(R)-4a] gave an IC50 of 48.9 µM.

Same assay, conditions: ShHTL5; YLG competition; Supplementary Fig. 27; read-out: IC50, replicate 2
In the case of `CC1=C[C@@H](OC(=O)N2CCN(C(=O)COc3ccc(Br)cc3C)CC2)OC1=O` [(R)-4a], the IC50 is reported as 46.9 µM.

Same assay, conditions: ShHTL5; YLG competition; Supplementary Fig. 27; read-out: IC50, replicate 3
Work on `CC1=C[C@@H](OC(=O)N2CCN(C(=O)COc3ccc(Br)cc3C)CC2)OC1=O` [(R)-4a] yielded an IC50 of 35.9 µM.

Same assay, conditions: ShHTL5; average of 3 replicates; Supplementary Fig. 27; read-out: IC50, average
`CC1=C[C@@H](OC(=O)N2CCN(C(=O)COc3ccc(Br)cc3C)CC2)OC1=O` [(R)-4a] showed an IC50 of 43.9 µM.

Same assay, conditions: ShHTL6; YLG competition; Supplementary Fig. 27; read-out: IC50, replicate 1
For `CC1=C[C@@H](OC(=O)N2CCN(C(=O)COc3ccc(Br)cc3C)CC2)OC1=O` [(R)-4a], the IC50 was greater than 100 µM.

Same assay, conditions: ShHTL6; YLG competition; Supplementary Fig. 27; read-out: IC50, replicate 2
Work on `CC1=C[C@@H](OC(=O)N2CCN(C(=O)COc3ccc(Br)cc3C)CC2)OC1=O` [(R)-4a] yielded an IC50 greater than 100 µM.

Same assay, conditions: ShHTL6; YLG competition; Supplementary Fig. 27; read-out: IC50, replicate 3
`CC1=C[C@@H](OC(=O)N2CCN(C(=O)COc3ccc(Br)cc3C)CC2)OC1=O` [(R)-4a] gave an IC50 greater than 100 µM.

Same assay, conditions: ShHTL6; average of 3 replicates; Supplementary Fig. 27; read-out: IC50, average
`CC1=C[C@@H](OC(=O)N2CCN(C(=O)COc3ccc(Br)cc3C)CC2)OC1=O` [(R)-4a] showed an IC50 greater than 100 µM.

Same assay, conditions: ShHTL8; YLG competition; Supplementary Fig. 27; read-out: IC50, replicate 1
For `CC1=C[C@@H](OC(=O)N2CCN(C(=O)COc3ccc(Br)cc3C)CC2)OC1=O` [(R)-4a], the IC50 was 58.4 µM.

Same assay, conditions: ShHTL8; YLG competition; Supplementary Fig. 27; read-out: IC50, replicate 2
With `CC1=C[C@@H](OC(=O)N2CCN(C(=O)COc3ccc(Br)cc3C)CC2)OC1=O` [(R)-4a] the IC50 was 53.3 µM.

Same assay, conditions: ShHTL8; YLG competition; Supplementary Fig. 27; read-out: IC50, replicate 3
Molecule `CC1=C[C@@H](OC(=O)N2CCN(C(=O)COc3ccc(Br)cc3C)CC2)OC1=O` [(R)-4a] has an IC50 of 69.9 µM.

Same assay, conditions: ShHTL8; average of 3 replicates; Supplementary Fig. 27; read-out: IC50, average
For `CC1=C[C@@H](OC(=O)N2CCN(C(=O)COc3ccc(Br)cc3C)CC2)OC1=O` [(R)-4a], the IC50 was 60.5 µM.

Same assay, conditions: ShHTL9; YLG competition; Supplementary Fig. 27; read-out: IC50, replicate 1
Molecule `CC1=C[C@@H](OC(=O)N2CCN(C(=O)COc3ccc(Br)cc3C)CC2)OC1=O` [(R)-4a] has an IC50 of 50.2 µM.

Same assay, conditions: ShHTL9; YLG competition; Supplementary Fig. 27; read-out: IC50, replicate 2
`CC1=C[C@@H](OC(=O)N2CCN(C(=O)COc3ccc(Br)cc3C)CC2)OC1=O` [(R)-4a] gave an IC50 of 43.9 µM.

Same assay, conditions: ShHTL9; YLG competition; Supplementary Fig. 27; read-out: IC50, replicate 3
Work on `CC1=C[C@@H](OC(=O)N2CCN(C(=O)COc3ccc(Br)cc3C)CC2)OC1=O` [(R)-4a] yielded an IC50 of 47.8 µM.

Same assay, conditions: ShHTL9; average of 3 replicates; Supplementary Fig. 27; read-out: IC50, average
`CC1=C[C@@H](OC(=O)N2CCN(C(=O)COc3ccc(Br)cc3C)CC2)OC1=O` [(R)-4a] showed an IC50 of 47.3 µM.

Same assay, conditions: ShHTL10; YLG competition; Supplementary Fig. 27; read-out: IC50, replicate 1
In the case of `CC1=C[C@@H](OC(=O)N2CCN(C(=O)COc3ccc(Br)cc3C)CC2)OC1=O` [(R)-4a], the IC50 is reported as 59.5 µM.

Same assay, conditions: ShHTL10; YLG competition; Supplementary Fig. 27; read-out: IC50, replicate 2
In the case of `CC1=C[C@@H](OC(=O)N2CCN(C(=O)COc3ccc(Br)cc3C)CC2)OC1=O` [(R)-4a], the IC50 is reported as 43.4 µM.

Same assay, conditions: ShHTL10; YLG competition; Supplementary Fig. 27; read-out: IC50, replicate 3
In the case of `CC1=C[C@@H](OC(=O)N2CCN(C(=O)COc3ccc(Br)cc3C)CC2)OC1=O` [(R)-4a], the IC50 is reported as 54.6 µM.

Same assay, conditions: ShHTL10; average of 3 replicates; Supplementary Fig. 27; read-out: IC50, average
With `CC1=C[C@@H](OC(=O)N2CCN(C(=O)COc3ccc(Br)cc3C)CC2)OC1=O` [(R)-4a] the IC50 was 52.5 µM.

Same assay, conditions: ShHTL11; YLG competition; Supplementary Fig. 27; read-out: IC50, replicate 1
With `CC1=C[C@@H](OC(=O)N2CCN(C(=O)COc3ccc(Br)cc3C)CC2)OC1=O` [(R)-4a] the IC50 was greater than 100 µM.

Same assay, conditions: ShHTL11; YLG competition; Supplementary Fig. 27; read-out: IC50, replicate 2
`CC1=C[C@@H](OC(=O)N2CCN(C(=O)COc3ccc(Br)cc3C)CC2)OC1=O` [(R)-4a] gave an IC50 greater than 100 µM.

Same assay, conditions: ShHTL11; YLG competition; Supplementary Fig. 27; read-out: IC50, replicate 3
`CC1=C[C@@H](OC(=O)N2CCN(C(=O)COc3ccc(Br)cc3C)CC2)OC1=O` [(R)-4a] gave an IC50 greater than 100 µM.

Same assay, conditions: ShHTL11; average of 3 replicates; Supplementary Fig. 27; read-out: IC50, average
In the case of `CC1=C[C@@H](OC(=O)N2CCN(C(=O)COc3ccc(Br)cc3C)CC2)OC1=O` [(R)-4a], the IC50 is reported as greater than 100 µM.
